The numbers were not newly measured in publication PMC12266345, “Discovery and characterization of selective lipase-inhibiting polyheterocyclic derivatives: a combined in silico and in vitro study” (Turkish Journal of Biology, 2025), which cites them from elsewhere.

Converted amounts (≈) assume the structure as drawn. Like-named read-outs stand apart in the source and are kept apart here.

For this series, the target named is lipase.
Where [1] appears, read: ref Ruiz et al., 2006, Benarous et al., 2015.

For the compound `CCOC(=O)N1CCC(=C2c3ccc(Cl)cc3CCc3cccnc32)CC1` [loratadine], for the setting “ref Benarous et al., 2018”, the IC50 lipase inhibition was 440 ± 0.02 µg/mL (≈ 1150 µM).

As to `O.Oc1cc(O)c2c(c1)O[C@H](c1ccc(O)c(O)c1)[C@@H](O)C2` [catechin], the IC50 lipase inhibition under setting [1] was 183 µg/mL.

On to `COc1ccc2c3c([nH]c2c1)C(C)=NCC3` [harmaline], for which the IC50 lipase inhibition under setting [1] is 830 µg/mL (≈ 3870 µM).

For `Nc1nc(=O)c2nc(CNc3ccc(C(=O)N[C@@H](CCC(=O)O)C(=O)O)cc3)cnc2[nH]1` [folic acid], the IC50 lipase inhibition (ref Serseg and Benarous, 2018) is 640 µg/mL (≈ 1450 µM).

Consider `Cc1nc(-c2ccc(OCC(C)C)c(C#N)c2)sc1C(=O)O` [febuxostat], for which, under “ref Serseg and Benarous, 2018”, the IC50 lipase inhibition is 660 µg/mL (≈ 2090 µM).

For `O=C(N[C@H](CO)[C@H](O)c1ccc([N+](=O)[O-])cc1)C(Cl)Cl` [Chloramphenicol], the IC50 lipase inhibition (ref Liu et al., 2006) was 220 ± 0.003 µg/mL (≈ 681 µM).

For `O=c1cc(O)cc(/C=C/c2ccc(O)c(O)c2)o1` [hispidin], the IC50 lipase inhibition under setting [1] is 179 µg/mL (≈ 727 µM).

Regarding `CN(C)[C@@H]1C(O)=C(C(N)=O)C(=O)[C@@]2(O)C(O)=C3C(=O)c4c(O)cccc4[C@@](C)(O)[C@H]3C[C@@H]12` [tetracycline], under “ref Liu et al., 2006”, the IC50 lipase inhibition is 470 ± 0.005 µg/mL (≈ 1060 µM).
